In patent US10266497B2 (ABIDE THERAPEUTICS, INC., priority 2017, dated 2019):
Where two headings read alike, the source gives them in different places.

How the values were obtained:
MAGL [1] = molecular target: T1, MAGL (Homo sapiens, UniProt Q99685); test: In vitro competitive activity-based protein profiling, MAGL, human; details: for inhibition at 1 µM: read-out: MAGL % inh. 1 μM (human)
T1 sequence (Q99685 1-303): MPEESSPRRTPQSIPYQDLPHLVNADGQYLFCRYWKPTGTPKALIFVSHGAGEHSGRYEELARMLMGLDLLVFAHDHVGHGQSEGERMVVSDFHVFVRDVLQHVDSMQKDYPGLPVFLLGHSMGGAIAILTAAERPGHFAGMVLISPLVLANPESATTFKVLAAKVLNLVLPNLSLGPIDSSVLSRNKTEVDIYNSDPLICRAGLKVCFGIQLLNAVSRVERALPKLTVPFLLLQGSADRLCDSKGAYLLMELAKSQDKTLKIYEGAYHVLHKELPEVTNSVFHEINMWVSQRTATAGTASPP

MAGL [2] = molecular target: T2, MAGL (Mus musculus, UniProt O35678); test: In vitro competitive activity-based protein profiling, MAGL, mouse; details: read-out: MAGL % inh. 1 μM (mouse)
T2 sequence (O35678 1-303): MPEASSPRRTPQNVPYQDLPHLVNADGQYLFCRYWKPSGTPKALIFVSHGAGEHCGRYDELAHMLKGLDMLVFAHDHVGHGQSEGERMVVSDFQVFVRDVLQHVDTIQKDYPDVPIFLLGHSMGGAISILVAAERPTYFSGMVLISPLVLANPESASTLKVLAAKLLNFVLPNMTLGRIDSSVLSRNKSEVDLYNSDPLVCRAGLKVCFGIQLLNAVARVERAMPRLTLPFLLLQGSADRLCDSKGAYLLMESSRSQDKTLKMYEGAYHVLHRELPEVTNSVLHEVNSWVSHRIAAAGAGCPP

FAAH [3] = molecular target: T3, FAAH (Mus musculus, UniProt O08914); test: Mouse brain proteomes from inhibitor treated mice (oral gavage, sacrificed 4 h after administration), FAAH; assay type: in vivo; set-up: mouse brain membrane fraction for mouse assays; from tissue; host or cells: mouse brain (membrane fraction in vitro; brain proteomes of treated C57Bl/6J mice in vivo); details: 5 mg/kg oral gavage, brain proteome 4 h after administration, read-out: FAAH % inh. 5 mg/kg (mouse)
T3 sequence (O08914 1-579): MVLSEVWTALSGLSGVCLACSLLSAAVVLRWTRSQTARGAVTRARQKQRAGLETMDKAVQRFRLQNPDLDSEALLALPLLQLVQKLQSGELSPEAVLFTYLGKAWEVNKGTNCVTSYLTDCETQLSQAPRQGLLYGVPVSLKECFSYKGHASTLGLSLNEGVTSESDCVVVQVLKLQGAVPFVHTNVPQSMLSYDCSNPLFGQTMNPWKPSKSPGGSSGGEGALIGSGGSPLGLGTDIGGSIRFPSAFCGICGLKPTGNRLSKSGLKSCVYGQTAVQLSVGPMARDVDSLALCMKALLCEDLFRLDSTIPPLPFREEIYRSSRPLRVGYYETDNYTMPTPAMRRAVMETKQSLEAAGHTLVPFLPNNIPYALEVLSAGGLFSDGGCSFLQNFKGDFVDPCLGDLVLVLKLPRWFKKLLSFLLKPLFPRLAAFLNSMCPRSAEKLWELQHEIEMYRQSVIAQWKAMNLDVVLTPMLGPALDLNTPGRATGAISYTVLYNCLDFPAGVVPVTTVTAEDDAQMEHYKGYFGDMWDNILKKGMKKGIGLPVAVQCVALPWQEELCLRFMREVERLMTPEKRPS

MAGL [4] = molecular target: T2, MAGL; test: Mouse brain proteomes from inhibitor treated mice (oral gavage, sacrificed 4 h after administration); assay type: in vivo; set-up: mouse brain membrane fraction for mouse assays; from tissue; host or cells: mouse brain (membrane fraction in vitro; brain proteomes of treated C57Bl/6J mice in vivo); details: 5 mg/kg oral gavage, brain proteome 4 h after administration, read-out: MAGL % inh. 5 mg/kg (mouse)
FAAH [5] = molecular target: T4, FAAH (Homo sapiens, UniProt O00519); test: In vitro competitive activity-based protein profiling, FAAH, human; details: for inhibition at 1 µM: read-out: FAAH % inh. 1 μM (human)
T4 sequence (O00519 1-579): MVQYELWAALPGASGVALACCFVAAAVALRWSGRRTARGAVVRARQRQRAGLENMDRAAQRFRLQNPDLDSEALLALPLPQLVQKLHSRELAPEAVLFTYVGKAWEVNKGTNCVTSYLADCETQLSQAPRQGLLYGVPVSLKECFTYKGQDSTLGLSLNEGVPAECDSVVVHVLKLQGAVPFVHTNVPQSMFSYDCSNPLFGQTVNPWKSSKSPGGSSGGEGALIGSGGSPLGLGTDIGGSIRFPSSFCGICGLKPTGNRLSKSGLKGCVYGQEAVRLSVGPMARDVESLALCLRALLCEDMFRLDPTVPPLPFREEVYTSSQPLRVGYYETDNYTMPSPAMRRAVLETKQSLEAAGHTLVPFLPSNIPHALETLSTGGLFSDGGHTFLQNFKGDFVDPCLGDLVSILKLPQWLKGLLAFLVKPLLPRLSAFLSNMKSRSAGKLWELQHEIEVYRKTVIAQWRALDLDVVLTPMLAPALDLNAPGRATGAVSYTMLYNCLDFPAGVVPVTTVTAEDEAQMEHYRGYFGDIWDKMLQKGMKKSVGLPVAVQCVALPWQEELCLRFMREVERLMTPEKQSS

FAAH [6] = molecular target: T3, FAAH; test: In vitro competitive activity-based protein profiling, FAAH, mouse; details: read-out: FAAH % inh. 1 μM (mouse)
FAAH [7] = molecular target: T3, FAAH; test: Mouse brain proteomes from inhibitor treated mice (oral gavage, sacrificed 4 h after administration), FAAH; assay type: in vivo; set-up: mouse brain membrane fraction for mouse assays; from tissue; host or cells: mouse brain (membrane fraction in vitro; brain proteomes of treated C57Bl/6J mice in vivo); details: 5 mg/kg oral gavage, C57Bl/6J mice, brain proteome 4 h after administration, read-out: FAAH % inh. 5 mg/kg (mouse)

| SMILES | IC50 (MAGL [1]) | inhibition at 1 µM (MAGL [1]) | inhibition at 1 µM (MAGL [2]) | inhibition at 5 mg/kg (FAAH [3]) | inhibition at 5 mg/kg (MAGL [4]) | IC50 (FAAH [5]) | inhibition at 1 µM (FAAH [5]) | inhibition at 1 µM (FAAH [6]) | inhibition at 5 mg/kg (FAAH [7]) | inhibition at 5 mg/kg (MAGL [4]; C57Bl/6J mice) |
| --- | --- | --- | --- | --- | --- | --- | --- | --- | --- | --- |
| O=C(O)c1ccn(C(=O)N2CCC3(CCN(Cc4cccc(Oc5ccc(Cl)cc5)c4)C3)CC2)n1 [Example 210, 1-(2-(3-(4-chlorophenoxy)benzyl)-2,8-diazaspiro[4.5]decane-8-carbonyl)-1H-pyrazole-3-carboxylic acid] | 100 to 1000 nM | > 75% | > 75% | 0 to 25% | 0 to 25% | 1000 to 10000 nM | > 75% | > 75% | – | – |
| O=C(O)c1ccn(C(=O)N2CCN(Cc3cccc(Cl)c3N3C4CCC3COC4)CC2)n1 [Example 212, 1-(4-(2-(3-oxa-8-azabicyclo[3.2.1]octan-8-yl)-3-chlorobenzyl)piper-azine-1-carbonyl)-1H-pyrazole-3-carboxylic acid] | – | > 75% | > 75% | 0 to 25% | 0 to 25% | – | 0 to 25% | 0 to 25% | – | – |
| CN(Cc1ccc(C(F)(F)F)cc1N1CCCC1)C1(C)CCN(C(=O)n2ccc(C(=O)O)n2)CC1 [Example 456, 1-(4-methyl-4-(methyl(2-(pyrrolidin-1-yl)-4-(trifluoromethyl)benzyl)amino)piper-idine-1-carbonyl)-1H-pyrazole-3-carboxylic acid] | – | > 75% | > 75% | – | – | – | 0 to 25% | 0 to 25% | 0 to 25% | 0 to 25% |

The next lines start with the values.

| IC50 (MAGL [1]) | inhibition at 1 µM (MAGL [1]) | inhibition at 1 µM (MAGL [2]) | inhibition at 5 mg/kg (FAAH [3]) | inhibition at 5 mg/kg (MAGL [4]) | IC50 (FAAH [5]) | inhibition at 1 µM (FAAH [5]) | inhibition at 1 µM (FAAH [6]) | inhibition at 5 mg/kg (FAAH [7]) | inhibition at 5 mg/kg (MAGL [4]; C57Bl/6J mice) | SMILES |
| --- | --- | --- | --- | --- | --- | --- | --- | --- | --- | --- |
| – | > 75% | > 75% | 0 to 25% | 0 to 25% | – | 0 to 25% | 0 to 25% | – | – | O=C(O)c1ccn(C(=O)N2CCN(Cc3cccc(Cl)c3N3CC4COCC4C3)CC2)n1 (stereo not shown) [Example 211, 1-(4-(3-chloro-2-(tetrahydro-1H-furo[3,4-c]pyrrol-5(3H)-yl)benzyl)piperazine-1-carbonyl)-1H-pyrazole-3-carboxylic acid] |
| – | – | > 75% | – | – | 1000 to 10000 nM | – | 0 to 25% | 0 to 25% | 0 to 25% | O=C(O)c1ccn(C(=O)N2CCN(Cc3cccc(C(F)(F)F)c3N3CCOCC3)CC2)n1 [Example 453, 1-(4-(2-morpholino-3-(trifluoromethyl)benzyl)piperazine-1-carbonyl)-1H-pyrazole-3-carboxylic acid] |
| – | > 75% | > 75% | – | – | – | 0 to 25% | 0 to 25% | 0 to 25% | 0 to 25% | O=C(O)c1ccn(C(=O)N2CCN(Cc3ccc(C(F)(F)F)c(N4CC5COCC5C4)c3)CC2)n1 (stereo not shown) [Example 454, 1-(4-(3-(tetrahydro-1H-furo[3,4-c]pyrrol-5(3H)-yl)-4-(trifluoromethyl)benzyl)piperazine-1-carbonyl)-1H-pyrazole-3-carboxylic acid] |
